From US9845308B2, “Isoindoline inhibitors of ROR-gamma” (Vitae Pharmaceuticals, Inc., priority 2014, dated 2017)

What was measured:
[1] = biological target: recombinant RORγ Ligand Binding Domain (LBD) protein (Homo sapiens (Human), UniProt P51449); assay: Radio-Ligand RORγ Binding Assay (Assay 1); settings: competition with 25-hydroxy[26,27-3H]-cholesterol, SPA; read-out: RORγ Binding Ki Range* (nM) (Assay 1)
Protocol: Radio-Ligand RORγ Binding Assay (Assay 1)
Compounds of the present invention were tested for ability to bind to RORγ in a cell-free competition assay with commercially available radio-ligand (RL), 25-hydroxy[26,27-^3H]-cholesterol (PerkinElmer, Cat. #NET674250UC), for a ligand binding site on a recombinant RORγ Ligand Binding Domain (LBD) protein expressed as a 6×His-Glutathione-S-Transferase (GST) fusion. […] The plate was shaken at 700 rpm for 20 min and incubated for 10 min at rt, after which 40 μL of poly-Lys YSi SPA beads (PerkinElmer, Cat. #RPNQ0010) were added to achieve 50 μg of the beads per well. The plate was incubated on an orbital shaker for 20 min and then for 10 min without agitation at rt. SPA signal for tritium beta radiation was registered on PerkinElmer Microbeta plate reader. […] The percent inhibition vs. concentration data were fit into a four-parameter model, and IC50 values were calculated from the fit as the concentrations corresponding to the inflection points on the dose-response curves. […]

[2] = biological target: full-length RORγt in Jurkat cells (Homo sapiens (Human), UniProt P51449); assay: RORγt 5×RORE Assay in Jurkat Cells (Assay 2); format: cell-based; settings: 5xRORE secreted Nanoluc luciferase reporter, 16-18 hrs, read-out: RORγt5X IC50 Range* (nM) (Assay 2)
Sequence of full-length RORγt in Jurkat cells (P51449 other isoform, or with tags, fused parts or gaps): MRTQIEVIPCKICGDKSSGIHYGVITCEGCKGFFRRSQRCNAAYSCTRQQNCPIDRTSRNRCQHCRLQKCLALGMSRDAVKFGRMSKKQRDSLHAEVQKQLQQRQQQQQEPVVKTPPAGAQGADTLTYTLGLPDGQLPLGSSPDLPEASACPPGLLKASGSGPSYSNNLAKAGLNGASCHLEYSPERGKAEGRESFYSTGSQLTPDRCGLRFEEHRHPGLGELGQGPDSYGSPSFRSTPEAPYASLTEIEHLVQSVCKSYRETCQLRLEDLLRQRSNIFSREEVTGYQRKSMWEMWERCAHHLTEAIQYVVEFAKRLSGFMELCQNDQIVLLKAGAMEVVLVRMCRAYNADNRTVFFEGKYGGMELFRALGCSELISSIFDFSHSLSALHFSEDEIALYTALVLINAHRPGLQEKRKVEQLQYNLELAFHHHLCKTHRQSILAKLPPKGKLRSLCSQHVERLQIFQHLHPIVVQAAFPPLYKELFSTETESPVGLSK
Protocol: [formula] RORγt 5×RORE Assay in Jurkat Cells (Assay 2)
Compounds of the present invention were tested for RORγ inverse agonist activity in a cell-based, transcriptional activity assay. […] (Promega, Cat. #N1021) using KpnI and HindIII restriction sites. […] Tested compounds were added to the cells in the same media (final concentration of DMSO was 0.1% (v/v)), and the plates were incubated at 37° C./5% CO2 for 16-18 hrs. Luciferase activity in the conditioned supernatants was determined with NanoGlo® assay reagents (Promega, Cat.#N1130).

Sequence of recombinant RORγ Ligand Binding Domain (LBD) protein (P51449 269-508): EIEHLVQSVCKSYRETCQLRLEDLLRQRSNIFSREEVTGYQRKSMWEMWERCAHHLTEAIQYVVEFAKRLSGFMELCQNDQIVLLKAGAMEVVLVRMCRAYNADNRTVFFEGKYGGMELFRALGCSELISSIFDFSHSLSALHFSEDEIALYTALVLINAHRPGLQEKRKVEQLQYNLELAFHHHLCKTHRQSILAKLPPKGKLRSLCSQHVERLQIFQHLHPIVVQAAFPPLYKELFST

Row | Compound | Ki [1] | IC50 [2]
1 | CCS(=O)(=O)N1CCC(CNC(=O)c2ccc3c(c2)CN(CC2CCC(OC)(C(F)(F)F)CC2)C3C(C)C)CC1 (single isomer, unassigned) [Compound 13a, N-((1-(ethylsulfonyl)piperidin-4-yl)methyl)-1-isopropyl-2-((4-methoxy-4-(trifluoromethyl)cyclohexyl)methyl)isoindoline-5-carboxamide] | < 100 nM | 100 to 1000 nM
2 | CCS(=O)(=O)N1CCC(CNC(=O)c2ccc3c(c2)CN(CC2CCC(OC)(C(F)(F)F)CC2)C3C(C)C)CC1 (single isomer, unassigned) [Compound 13b, N-((1-(ethylsulfonyl)piperidin-4-yl)methyl)-1-isopropyl-2-((4-methoxy-4-(trifluoromethyl)cyclohexyl)methyl)isoindoline-5-carboxamide] | < 100 nM | < 100 nM
3 | COC1(C(F)(F)F)CCC(CN2Cc3cc(C(=O)NCC4CCN(S(C)(=O)=O)CC4)ccc3[C@@H]2C(C)C)CC1 (single isomer, unassigned) [Compound 14b] | < 100 nM | > 1000 nM
4 | CC[C@H]1c2ccc(C(=O)N[C@@H](COC(N)=O)c3ccc(S(=O)(=O)CC)cc3)cc2CN1C[C@H]1CC[C@H](C(F)(F)F)CC1 (single isomer, unassigned) [Compound 24a] | < 100 nM | < 100 nM
5 | CC[C@H]1c2ccc(C(=O)N[C@@H](COC(N)=O)c3ccc(S(=O)(=O)CC)cc3)cc2CN1C[C@H]1CC[C@H](C(F)(F)F)CC1 (single isomer, unassigned) [Compound 24b] | < 100 nM | > 1000 nM
6 | CCS(=O)(=O)c1ccc(CNC(=O)c2ccc3c(c2)C(=O)N(Cc2ccc(C(F)(F)F)cc2)C3C(C)C)cc1 (single isomer, unassigned) [Compound 26a, N-(4-(ethylsulfonyl)benzyl)-1-isopropyl-3-oxo-2-(4-(trifluoromethyl)benzyl)isoindoline-5-carboxamide] | < 100 nM | < 100 nM
7 | CCS(=O)(=O)c1ccc(CNC(=O)c2ccc3c(c2)C(=O)N(Cc2ccc(C(F)(F)F)cc2)C3C(C)C)cc1 (single isomer, unassigned) [Compound 26b, N-(4-(ethylsulfonyl)benzyl)-1-isopropyl-3-oxo-2-(4-(trifluoromethyl)benzyl)isoindoline-5-carboxamide] | < 100 nM | 100 to 1000 nM
8 | CC(C)[C@H]1c2ccc(C(=O)NCC3CCN(S(C)(=O)=O)CC3)cc2CN1C[C@H]1CC[C@H](C(F)(F)F)CC1 [Compound 4a] | < 100 nM | < 100 nM
9 | CC(C)[C@@H]1c2ccc(C(=O)NCC3CCN(S(C)(=O)=O)CC3)cc2CN1C[C@H]1CC[C@H](C(F)(F)F)CC1 [Compound 4b] | 100 to 1000 nM | 
10 | CCS(=O)(=O)N1CCC(CNC(=O)c2ccc3c(c2)CN(CC2CCC(OC)(C(F)(F)F)CC2)C3C(C)C)CC1 (centres unmarked) [Compound 13c and 13d, N-((1-(ethylsulfonyl)piperidin-4-yl)methyl)-1-isopropyl-2-((4-methoxy-4-(trifluoromethyl)cyclohexyl)methyl)isoindoline-5-carboxamide] | 100 to 1000 nM | 
11 | CC[C@H]1c2ccc(C(=O)NCc3ccc(S(=O)(=O)NC)cc3)cc2CN1C[C@H]1CC[C@H](C(F)(F)F)CC1 [Compound 22] | < 100 nM | < 100 nM
12 | CCS(=O)(=O)c1ccc([C@H](CO)NC(=O)c2ccc3c(c2)C(=O)N(Cc2ccc(C(F)(F)F)cc2)C3C(C)C)cc1 (some centres unmarked) [Compound 28] | < 100 nM | < 100 nM
13 | CCC1(C)c2ccc(C(=O)NCc3ccc(S(=O)(=O)CC)cc3)cc2C(=O)N1CC1CCC(C(F)(F)F)CC1 (centres unmarked) [Compound 31, 1-ethyl-N-(4-(ethylsulfonyl)benzyl)-1-methyl-3-oxo-2-((4-(trifluoromethyl)cyclohexyl)methyl)isoindoline-5-carboxamide] | > 1000 nM | 

More lines, now with the values ahead:

Row | Ki [1] | IC50 [2] | Compound
14 | < 100 nM | < 100 nM | CCO[C@H]1CC[C@H](CN2Cc3cc(C(=O)NCc4ccc(S(=O)(=O)CC)cn4)ccc3[C@@H]2C(C)C)CC1 (single isomer, unassigned) [Compound 7a, 2-((trans-4-ethoxycyclohexyl)methyl)-N-((5-(ethylsulfonyl)pyridin-2-yl)methyl)-1-isopropylisoindoline-5-carboxamide]
15 | > 1000 nM |  | CCO[C@H]1CC[C@H](CN2Cc3cc(C(=O)NCc4ccc(S(=O)(=O)CC)cn4)ccc3[C@H]2C(C)C)CC1 (single isomer, unassigned) [Compound 7b, 2-((trans-4-ethoxycyclohexyl)methyl)-N-((5-(ethylsulfonyl)pyridin-2-yl)methyl)-1-isopropylisoindoline-5-carboxamide]
16 | < 100 nM | < 100 nM | CCS(=O)(=O)c1ccc(CNC(=O)c2ccc3c(c2)CN(CC2CCC(O)(C(F)(F)F)CC2)C3C(C)C)cc1 (single isomer, unassigned) [Compound 12a, N-(4-(ethylsulfonyl)benzyl)-2-((4-hydroxy-4-(trifluoromethyl)cyclohexyl)methyl)-1-isopropylisoindoline-5-carboxamide]
17 | < 100 nM | > 1000 nM | CCS(=O)(=O)c1ccc(CNC(=O)c2ccc3c(c2)CN(CC2CCC(O)(C(F)(F)F)CC2)C3C(C)C)cc1 (single isomer, unassigned) [Compound 12b, N-(4-(ethylsulfonyl)benzyl)-2-((4-hydroxy-4-(trifluoromethyl)cyclohexyl)methyl)-1-isopropylisoindoline-5-carboxamide]
18 | < 100 nM | 100 to 1000 nM | CCS(=O)(=O)c1ccc(CNC(=O)c2ccc3c(c2)CN(CC2CCC(O)(C(F)(F)F)CC2)C3C(C)C)cc1 (single isomer, unassigned) [Compound 12c, N-(4-(ethylsulfonyl)benzyl)-2-((4-hydroxy-4-(trifluoromethyl)cyclohexyl)methyl)-1-isopropylisoindoline-5-carboxamide]
19 | < 100 nM | < 100 nM | CCS(=O)(=O)c1ccc(CNC(=O)c2ccc3c(c2)CN(CC2CCC(O)(C(F)(F)F)CC2)C3C(C)C)cc1 (single isomer, unassigned) [Compound 12d, N-(4-(ethylsulfonyl)benzyl)-2-((4-hydroxy-4-(trifluoromethyl)cyclohexyl)methyl)-1-isopropylisoindoline-5-carboxamide]
20 | < 100 nM | < 100 nM | CCS(=O)(=O)c1ccc(CNC(=O)c2ccc3c(c2)CN(CC2CCC(C(F)(F)F)OC2)[C@H]3C(C)C)nc1 (single isomer, unassigned) [Compound 16a]
21 |  | < 100 nM | CCS(=O)(=O)c1ccc(CNC(=O)c2ccc3c(c2)CN(CC2CCC(C(F)(F)F)OC2)[C@H]3C(C)C)nc1 (single isomer, unassigned) [Compound 16b]
22 | < 100 nM | < 100 nM | CCS(=O)(=O)c1ccc(CNC(=O)c2ccc3c(c2)CN(C[C@H]2CO[C@H](C(F)(F)F)OC2)[C@H]3C(C)C)nc1 (single isomer, unassigned) [Compound 32a]
23 | < 100 nM | > 1000 nM | CCS(=O)(=O)c1ccc(CNC(=O)c2ccc3c(c2)CN(C[C@H]2CO[C@H](C(F)(F)F)OC2)[C@H]3C(C)C)nc1 (single isomer, unassigned) [Compound 32b]
24 | < 100 nM | < 100 nM | CCS(=O)(=O)c1ccc([C@H](CO)NC(=O)c2ccc3c(c2)CN(C[C@H]2CC[C@H](C(F)(F)F)CC2)[C@H]3C(C)C)cc1 [Compound 3a]
25 | < 100 nM | 100 to 1000 nM | CCS(=O)(=O)c1ccc([C@H](CO)NC(=O)c2ccc3c(c2)CN(C[C@H]2CC[C@H](C(F)(F)F)CC2)[C@@H]3C(C)C)cc1 [Compound 3b]
26 | < 100 nM | < 100 nM | CCS(=O)(=O)c1ccc([C@@H](CO)NC(=O)c2ccc3c(c2)CN(C[C@H]2CC[C@H](C(F)(F)F)CC2)[C@H]3C(C)C)cc1 [Compound 3c]
27 | < 100 nM | > 1000 nM | CCS(=O)(=O)c1ccc([C@@H](CO)NC(=O)c2ccc3c(c2)CN(C[C@H]2CC[C@H](C(F)(F)F)CC2)[C@@H]3C(C)C)cc1 [Compound 3d]
28 | < 100 nM | < 100 nM | CCS(=O)(=O)c1ccc([C@H](CCO)NC(=O)c2ccc3c(c2)CN(C[C@H]2CC[C@H](C(F)(F)F)CC2)[C@H]3C(C)C)cc1 [Compound 6a]
29 | < 100 nM | 100 to 1000 nM | CCS(=O)(=O)c1ccc([C@H](CCO)NC(=O)c2ccc3c(c2)CN(C[C@H]2CC[C@H](C(F)(F)F)CC2)[C@@H]3C(C)C)cc1 [Compound 6b]
30 | < 100 nM | < 100 nM | CC[C@H]1c2ccc(C(=O)NCc3ccc(S(=O)(=O)NC)cn3)cc2CN1C[C@H]1CC[C@H](C(F)(F)F)CC1 [Compound 23a]
31 | < 100 nM | 100 to 1000 nM | CC[C@@H]1c2ccc(C(=O)NCc3ccc(S(=O)(=O)NC)cn3)cc2CN1C[C@H]1CC[C@H](C(F)(F)F)CC1 [Compound 23b]
32 | < 100 nM | 100 to 1000 nM | CCS(=O)(=O)c1ccc(CNC(=O)c2ccc3c(c2)C(=O)N(Cc2ccc(C(F)(F)F)cc2)C3C(C)C)nc1 (centres unmarked) [Compound 27]
